According to patent publication US8962855B2 (priority 2011, dated 2015):

Assays:
[1] = tested on: RPMI-8226; experiment: cells; format: cell-based, human; details: for IC50: Homo sapiens, RPMI-8226, 48 h, read-out: IC50, cellular anti-proliferative assay
[2] = tested on: NCI-H322M; experiment: cells; format: cell-based, human; details: for IC50: Homo sapiens, NCI-H322M, 48 h, read-out: IC50, cellular anti-proliferative assay
[3] = biological target: T1, CDK9/cyclin T1 (Homo sapiens, UniProt P50750); experiment: biochemical
T1 construct: C-terminal 6His-tagged, full-length recombinant, human cdk9 (MW=44 kDa); made in house; host or cells: Sf21 insect cells (baculovirus)

[4] = biological target: T2, CDK3/cyclin E (Homo sapiens, UniProt Q00526); experiment: biochemical
T2 construct: C-terminal 6His-tagged recombinant human full-length cdk3 (MW=36 kDa); made in house; host or cells: Sf21 insect cells (baculovirus)

[5] = tested on: IGROV1; experiment: cells; format: cell-based, human; details: for IC50: Homo sapiens, IGROV-1, 48 h, read-out: IC50, cellular anti-proliferative assay
[6] = tested on: HS 578T; experiment: cells; format: cell-based, human; details: for IC50: Homo sapiens, Hs-578T, 48 h, read-out: IC50, cellular anti-proliferative assay
[7] = tested on: MDA-MB-435; experiment: cells; format: cell-based, human; details: for IC50: Homo sapiens, MDA-MB-435, 48 h, read-out: IC50, cellular anti-proliferative assay
[8] = tested on: MDA-MB-231; experiment: cells; format: cell-based, human; details: for IC50: Homo sapiens, MDA-MB-231, 48 h, read-out: IC50, cellular anti-proliferative assay
[9] = biological target: T3, CDK2/cyclin E (Homo sapiens, UniProt P24941); experiment: biochemical
T3 construct: C-terminal 6His-tagged, recombinant full-length CDK2 (MW=34 kDa); made in house; host or cells: Sf21 insect cells (baculovirus)

[10] = tested on: SW-620; experiment: cells; format: cell-based, human; details: for IC50: Homo sapiens, SW-620, 48 h, read-out: IC50, cellular anti-proliferative assay
[11] = tested on: KM12; experiment: cells; format: cell-based, human; details: for IC50: Homo sapiens, KM12, 48 h, read-out: IC50, cellular anti-proliferative assay
[12] = tested on: M14; experiment: cells; format: cell-based, human; details: for IC50: Homo sapiens, M14, 48 h, read-out: IC50, cellular anti-proliferative assay
[13] = tested on: HT29; experiment: cells; format: cell-based, human; details: for IC50: Homo sapiens, HT-29, 48 h, read-out: IC50, cellular anti-proliferative assay

T1 sequence (P50750 whole entry): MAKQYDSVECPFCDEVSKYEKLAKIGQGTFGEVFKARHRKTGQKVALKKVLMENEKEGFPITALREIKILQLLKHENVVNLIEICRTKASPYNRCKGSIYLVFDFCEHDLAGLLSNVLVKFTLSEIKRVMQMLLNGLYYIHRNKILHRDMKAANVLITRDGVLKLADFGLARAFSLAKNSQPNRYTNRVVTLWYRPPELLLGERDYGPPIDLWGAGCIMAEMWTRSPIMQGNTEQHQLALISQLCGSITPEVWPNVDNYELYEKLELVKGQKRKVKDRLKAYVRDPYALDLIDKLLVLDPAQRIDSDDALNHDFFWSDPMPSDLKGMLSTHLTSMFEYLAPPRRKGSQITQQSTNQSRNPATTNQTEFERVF
T1 sequence (O60563 whole entry partner): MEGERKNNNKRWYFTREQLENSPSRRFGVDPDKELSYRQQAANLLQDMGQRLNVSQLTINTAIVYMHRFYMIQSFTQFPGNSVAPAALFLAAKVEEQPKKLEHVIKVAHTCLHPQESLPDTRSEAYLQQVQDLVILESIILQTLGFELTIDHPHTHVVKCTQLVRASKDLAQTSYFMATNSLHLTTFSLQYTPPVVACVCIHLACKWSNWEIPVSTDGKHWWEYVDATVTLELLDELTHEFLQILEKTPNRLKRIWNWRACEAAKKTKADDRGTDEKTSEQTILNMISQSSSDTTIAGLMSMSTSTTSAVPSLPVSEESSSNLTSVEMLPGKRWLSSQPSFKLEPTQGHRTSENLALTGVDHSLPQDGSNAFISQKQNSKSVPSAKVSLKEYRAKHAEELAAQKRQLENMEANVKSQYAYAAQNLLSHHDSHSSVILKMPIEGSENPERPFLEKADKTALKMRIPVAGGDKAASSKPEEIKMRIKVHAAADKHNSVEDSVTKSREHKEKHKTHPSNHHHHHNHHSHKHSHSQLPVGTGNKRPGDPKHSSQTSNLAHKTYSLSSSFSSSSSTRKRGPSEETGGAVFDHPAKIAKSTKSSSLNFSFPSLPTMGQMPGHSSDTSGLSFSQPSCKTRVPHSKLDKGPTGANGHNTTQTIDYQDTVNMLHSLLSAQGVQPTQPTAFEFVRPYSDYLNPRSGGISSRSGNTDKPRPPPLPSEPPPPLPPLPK
T2 sequence (Q00526 whole entry): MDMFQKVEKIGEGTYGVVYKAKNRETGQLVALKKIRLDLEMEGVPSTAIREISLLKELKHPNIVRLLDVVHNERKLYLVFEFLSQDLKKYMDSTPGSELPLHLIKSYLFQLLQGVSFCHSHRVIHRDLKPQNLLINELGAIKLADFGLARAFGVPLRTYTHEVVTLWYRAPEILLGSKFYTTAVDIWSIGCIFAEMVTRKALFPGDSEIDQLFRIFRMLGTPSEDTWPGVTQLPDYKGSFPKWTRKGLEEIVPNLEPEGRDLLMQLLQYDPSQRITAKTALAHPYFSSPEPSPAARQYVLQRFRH
T2 sequence (P24864 whole entry, further chain): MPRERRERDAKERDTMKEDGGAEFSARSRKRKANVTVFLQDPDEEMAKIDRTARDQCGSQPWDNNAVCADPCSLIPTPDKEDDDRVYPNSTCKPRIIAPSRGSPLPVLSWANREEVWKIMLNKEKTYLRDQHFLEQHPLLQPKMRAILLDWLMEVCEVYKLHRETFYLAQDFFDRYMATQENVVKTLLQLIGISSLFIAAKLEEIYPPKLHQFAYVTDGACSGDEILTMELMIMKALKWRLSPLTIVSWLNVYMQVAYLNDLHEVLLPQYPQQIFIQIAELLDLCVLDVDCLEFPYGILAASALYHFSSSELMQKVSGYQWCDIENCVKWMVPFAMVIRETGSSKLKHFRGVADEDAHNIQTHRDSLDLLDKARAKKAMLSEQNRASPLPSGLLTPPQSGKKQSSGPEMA

Compound	IC50 [1] [nM]	IC50 [2] [nM]	IC50 [5] [nM]	IC50 [6] [nM]	IC50 [7] [nM]	IC50 [8] [nM]	IC50 [10] [nM]	IC50 [11] [nM]	IC50 [12] [nM]	IC50 [13] [nM]	other results
CC(C)(C)c1cnc(CSc2cnc(NC(=O)Cc3ccc(N(CCCl)CCCl)cc3)s2)o1 [CY-201, 2-(4-(bis(2-chloroethyl)amino)phenyl)-N-(5-((5-tert-butyloxazol-2-yl)methylthio)thiazol-2-yl)acetamide]	269	148	107	148	79	219	98	91	58	107	Ratio [1]: 280.5; Ratio [2]: 1380.4; IC50 [3]: 90.4 nM; IC50 [4]: 45.6 nM; Ratio [5]: 1088.9; Ratio [6]: 1273.5; Ratio [7]: 1577.6; fold more potent than the parental drug Chlorambucil [7]: more than 1,500 fold; Ratio [8]: 727.8; IC50 [9]: 2.7 nM; Ratio [10]: 895.4; Ratio [11]: 1570.4; Ratio [12]: 1083.9; Ratio [13]: 1227.4
O=C(O)CCCc1ccc(N(CCCl)CCCl)cc1 [Chlorambucil, reference compound]	75500	204000	117000	188000	125000	159000	87500	143000	62400	132000	CDK IC50, CDK9/cyclin T1 (Chlorambucil) [3]: No activity; CDK IC50, CDK3/cyclin E (Chlorambucil) [4]: No activity; CDK IC50, CDK2/cyclin E (Chlorambucil) [9]: No activity
